For the data set, the system named is VCaP cells. The experiment in a line: Cytotoxicity assessment (Cell-titer-glo cell viability), VCaP. As to conditions: read-out: VCaP (CC50); VCaP cells, 6 days of treatment, Cell-titer-glo, vs DMSO.
One may read the CC50 as the concentration that lowers cell viability or growth by half. `CC1(C)[C@H](NC(=O)c2ccc(N3CCN(CC4CCN(CCNC(=O)C5CN(c6ccc7nnn(C8CCC(=O)NC8=O)c(=O)c7c6)C5)CC4)CC3)cc2)C(C)(C)[C@H]1Oc1ccc(C#N)c(Cl)c1` (some centres unmarked) [Example 69, N-(2-(4-((4-(4-(((1r,3r)-3-(3-chloro-4-cyanophenoxy)-2,2,4,4-tetramethylcyclobutyl)carbamoyl)phenyl)piperazin-1-yl)methyl)piperidin-1-yl)ethyl)-1-(3-(2,6-dioxopiperidin-3-yl)-4-oxo-3,4-dihydrobenzo[d][1,2,3]triazin-6-yl)azetidine-3-carboxamide]: the half-maximal cytotoxic concentration (CC50) worked out at 0.345 µM.

Consider `CC1(C)C(NC(=O)c2cnc(N3CCN(CC4CCN(C(=O)COc5ccc6nnn(C7CCC(=O)NC7=O)c(=O)c6c5)CC4)CC3)nc2)C(C)(C)C1Oc1ccc(C#N)c(Cl)c1` (centres unmarked) [Example 148, N-((1r,3r)-3-(3-chloro-4-cyanophenoxy)-2,2,4,4-tetramethylcyclobutyl)-2-(4-((1-(2-((3-(2,6-dioxopiperidin-3-yl)-4-oxo-3,4-dihydrobenzo[d][1,2,3]triazin-6-yl)oxy)acetyl)piperidin-4-yl)methyl)piperazin-1-yl)pyrimidine-5-carboxamide], for which the cytotoxic concentration (CC50) is ~0.01 µM.

On to `CC1(C)C(NC(=O)c2ccc(-c3cnn(C4CCN(CC5CCN(C(=O)CNc6ccc7nnn(C8CCC(=O)NC8=O)c(=O)c7c6)CC5)CC4)c3)cc2)C(C)(C)C1Oc1ccc(C#N)c(Cl)c1` (centres unmarked) [Example 112, N-((1r,3r)-3-(3-chloro-4-cyanophenoxy)-2,2,4,4-tetramethylcyclobutyl)-4-(1-(1-((1-((3-(2,6-dioxopiperidin-3-yl)-4-oxo-3,4-dihydrobenzo[d][1,2,3]triazin-6-yl)glycyl)piperidin-4-yl)methyl)piperidin-4-yl)-1H-pyrazol-4-yl)benzamide], for which the CC50 came out at 0.016 µM.

For `CC1(C)C(NC(=O)c2ccc(C#CC3CCN(CC4CCN(C(=O)C5CCN(c6ccc7nnn(C8CCC(=O)NC8=O)c(=O)c7c6)CC5)CC4)CC3)nc2)C(C)(C)C1Oc1ccc(C#N)c(Cl)c1` (centres unmarked) [Example 130, N-((1r,3r)-3-(3-chloro-4-cyanophenoxy)-2,2,4,4-tetramethylcyclobutyl)-6-((1-((1-(1-(3-(2,6-dioxopiperidin-3-yl)-4-oxo-3,4-dihydrobenzo[d][1,2,3]triazin-6-yl)piperidine-4-carbonyl)piperidin-4-yl)methyl)piperidin-4-yl)ethynyl)nicotinamide], the CC50 came out at 0.017 µM.

Consider `CC1(C)[C@H](NC(=O)c2cnc(N3CCN(CC4CCN(c5ccc6nnn(C7CCC(=O)NC7=O)c(=O)c6c5)CC4)CC3)nc2)C(C)(C)[C@H]1Oc1ccc(C#N)c(Cl)c1` (some centres unmarked) [Example 100, N-((1r,3r)-3-(3-chloro-4-cyanophenoxy)-2,2,4,4-tetramethylcyclobutyl)-2-(4-((1-(3-(2,6-dioxopiperidin-3-yl)-4-oxo-3,4-dihydrobenzo[d][1,2,3]triazin-6-yl)piperidin-4-yl)methyl)piperazin-1-yl)pyrimidine-5-carboxamide], for which the 50% cytotoxic concentration (CC50) was 0.002 µM.

Turning to `CC1(C)C(NC(=O)c2cnc(N3CCN(CC4CCN(C(=O)C5CN(c6ccc7nnn(C8CCC(=O)NC8=O)c(=O)c7c6)C5)CC4)CC3)nc2)C(C)(C)C1Oc1ccc(C#N)c(Cl)c1` (centres unmarked) [Example 146, N-((1r,3r)-3-(3-chloro-4-cyanophenoxy)-2,2,4,4-tetramethylcyclobutyl)-2-(4-((1-(1-(3-(2,6-dioxopiperidin-3-yl)-4-oxo-3,4-dihydrobenzo[d][1,2,3]triazin-6-yl)azetidine-3-carbonyl)piperidin-4-yl)methyl)piperazin-1-yl)pyrimidine-5-carboxamide], the CC50 is ~0.01 µM.

As to `CC1(C)[C@H](NC(=O)c2ccc(-n3cc(CN4CCN(C(=O)CNc5ccc6nnn(C7CCC(=O)NC7=O)c(=O)c6c5)CC4)nn3)cc2)C(C)(C)[C@H]1Oc1ccc(C#N)c(Cl)c1` (some centres unmarked) [Example 123, N-((1r,3r)-3-(3-chloro-4-cyanophenoxy)-2,2,4,4-tetramethylcyclobutyl)-4-(4-((4-((3-(2,6-dioxopiperidin-3-yl)-4-oxo-3,4-dihydrobenzo[d][1,2,3]triazin-6-yl)glycyl)piperazin-1-yl)methyl)-1H-1,2,3-triazol-1-yl)benzamide], the cytotoxic concentration (CC50) was determined as 0.055 µM.

For `CC1(C)C(NC(=O)c2ccc(-n3cc(CCOCCOCCNC(=O)CNc4ccc5nnn(C6CCC(=O)NC6=O)c(=O)c5c4)nn3)cc2)C(C)(C)C1Oc1ccc(C#N)c(Cl)c1` (centres unmarked) [Example 159, N-((1r,3r)-3-(3-chloro-4-cyanophenoxy)-2,2,4,4-tetramethylcyclobutyl)-4-(4-(2-(2-(2-(2-((3-(2,6-dioxopiperidin-3-yl)-4-oxo-3,4-dihydrobenzo[d][1,2,3]triazin-6-yl)amino)acetamido)ethoxy)ethoxy)ethyl)-1H-1,2,3-triazol-1-yl)benzamide], the CC50 was 0.109 µM.

In the case of `CC1(C)C(NC(=O)c2ccc(N3CC4CN(CC5CCN(C(=O)CNc6ccc7nnn(C8CCC(=O)NC8=O)c(=O)c7c6)CC5)CC4C3)cc2)C(C)(C)C1Oc1ccc(C#N)c(Cl)c1` (centres unmarked) [Example 138, N-((1r,3r)-3-(3-chloro-4-cyanophenoxy)-2,2,4,4-tetramethylcyclobutyl)-4-(5-((1-((3-(2,6-dioxopiperidin-3-yl)-4-oxo-3,4-dihydrobenzo[d][1,2,3]triazin-6-yl)glycyl)piperidin-4-yl)methyl)hexahydropyrrolo[3,4-c]pyrrol-2(1H)-yl)benzamide], the CC50 was 0.0637 µM.

For `CC1(C)C(NC(=O)c2ccc(-n3cc(CCNC(=O)C4CN(c5ccc6nnn(C7CCC(=O)NC7=O)c(=O)c6c5)C4)nn3)cc2)C(C)(C)C1Oc1ccc(C#N)c(Cl)c1` (centres unmarked) [Example 155, N-(2-(1-(4-(((1r,3r)-3-(3-chloro-4-cyanophenoxy)-2,2,4,4-tetramethylcyclobutyl)carbamoyl)phenyl)-1H-1,2,3-triazol-4-yl)ethyl)-1-(3-(2,6-dioxopiperidin-3-yl)-4-oxo-3,4-dihydrobenzo[d][1,2,3]triazin-6-yl)azetidine-3-carboxamide], the CC50 stood at 0.177 µM.

Take `CC1(C)C(NC(=O)c2ccc(C#CCC3CCN(C4CCN(c5ccc6nnn(C7CCC(=O)NC7=O)c(=O)c6c5)CC4)CC3)cc2)C(C)(C)C1Oc1ccc(C#N)c(Cl)c1` (centres unmarked) [Example 89, N-((1r,3r)-3-(3-chloro-4-cyanophenoxy)-2,2,4,4-tetramethylcyclobutyl)-4-(3-(1 ? (3-(2,6-dioxopiperidin-3-yl)-4-oxo-3,4-dihydrobenzo[d][1,2,3]triazin-6-yl)-[1,4 ? bipiperdin]-4-yl)prop-1-yn-1-yl)benzamide]: the half-maximal cytotoxic concentration (CC50) was 0.112 µM.

For the compound `CC1(C)C(NC(=O)c2ccc(-n3cc(CCOCCOCCNC(=O)C4CCN(c5ccc6nnn(C7CCC(=O)NC7=O)c(=O)c6c5)CC4)nn3)cc2)C(C)(C)C1Oc1ccc(C#N)c(Cl)c1` (centres unmarked) [Example 158, N-(2-(2-(2-(1-(4-(((1r,3r)-3-(3-chloro-4-cyanophenoxy)-2,2,4,4-tetramethylcyclobutyl)carbamoyl)phenyl)-1H-1,2,3-triazol-4-yl)ethoxy)ethoxy)ethyl)-1-(3-(2,6-dioxopiperidin-3-yl)-4-oxo-3,4-dihydrobenzo[d][1,2,3]triazin-6-yl)piperidine-4-carboxamide], the cytotoxic concentration (CC50) was 0.0387 µM.

As for `CC1(C)C(NC(=O)c2ccc(C#CC3CCN(CC4CCN(C(=O)CNc5ccc6nnn(C7CCC(=O)NC7=O)c(=O)c6c5)CC4)CC3)cc2)C(C)(C)C1Oc1ccc(C#N)c(Cl)c1` (centres unmarked) [Example 98, N-((1r,3r)-3-(3-chloro-4-cyanophenoxy)-2,2,4,4-tetramethylcyclobutyl)-4-((1-((1-((3-(2,6-dioxopiperidin-3-yl)-4-oxo-3,4-dihydrobenzo[d][1,2,3]triazin-6-yl)glycyl)piperidin-4-yl)methyl)piperidin-4-yl)ethynyl)benzamide], the CC50 stood at 0.00672 µM.

For the compound `CC1(C)C(NC(=O)c2ccc(C#CCC3CCN(CC4CCN(C(=O)CNc5ccc6nnn(C7CCC(=O)NC7=O)c(=O)c6c5)CC4)CC3)cc2)C(C)(C)C1Oc1ccc(C#N)c(Cl)c1` (centres unmarked) [Example 118, N-((1r,3r)-3-(3-chloro-4-cyanophenoxy)-2,2,4,4-tetramethylcyclobutyl)-4-(3-(1-((1-((3-(2,6-dioxopiperidin-3-yl)-4-oxo-3,4-dihydrobenzo[d][1,2,3]triazin-6-yl)glycyl)piperidin-4-yl)methyl)piperidin-4-yl)prop-1-yn-1-yl)benzamide], the 50% cytotoxic concentration (CC50) was found to be 0.017 µM.

Take `CC1(C)C(NC(=O)c2ccc(C#CCC3CCN(CC4CCN(C(=O)CNc5ccc6nnn(C7CCC(=O)NC7=O)c(=O)c6c5)CC4)CC3)nc2)C(C)(C)C1Oc1ccc(C#N)c(Cl)c1` (centres unmarked) [Example 128, N-((1r,3r)-3-(3-chloro-4-cyanophenoxy)-2,2,4,4-tetramethylcyclobutyl)-6-(3-(1-((1-((3-(2,6-dioxopiperidin-3-yl)-4-oxo-3,4-dihydrobenzo[d][1,2,3]triazin-6-yl)glycyl)piperidin-4-yl)methyl)piperidin-4-yl)prop-1-yn-1-yl)nicotinamide]: the 50% cytotoxic concentration (CC50) worked out at 0.011 µM.

With `CC1(C)C(NC(=O)c2ccc(C#CC3CCN(CC4CCN(C(=O)CNc5ccc6nnn(C7CCC(=O)NC7=O)c(=O)c6c5)CC4)CC3)nc2)C(C)(C)C1Oc1ccc(C#N)c(Cl)c1` (centres unmarked) [Example 132, N-((1r,3r)-3-(3-chloro-4-cyanophenoxy)-2,2,4,4-tetramethylcyclobutyl)-6-((1-((1-((3-(2,6-dioxopiperidin-3-yl)-4-oxo-3,4-dihydrobenzo[d][1,2,3]triazin-6-yl)glycyl)piperidin-4-yl)methyl)piperidin-4-yl)ethynyl)nicotinamide], the CC50 was found to be 0.015 µM.

As for `CC1(C)C(NC(=O)c2ccc(CCN3CCN(CC4CCN(C(=O)C5CN(c6ccc7nnn(C8CCC(=O)NC8=O)c(=O)c7c6)C5)CC4)CC3)cc2)C(C)(C)C1Oc1ccc(C#N)c(Cl)c1` (centres unmarked) [Example 109, N-((1r,3r)-3-(3-chloro-4-cyanophenoxy)-2,2,4,4-tetramethylcyclobutyl)-4-(2-(4-((1-(1-(3-(2,6-dioxopiperidin-3-yl)-4-oxo-3,4-dihydrobenzo[d][1,2,3]triazin-6-yl)azetidine-3-carbonyl)piperidin-4-yl)methyl)piperazin-1-yl)ethyl)benzamide], the CC50 worked out at 0.013 µM.
